Data on 1 molecule can be found in paper PMC6320955, “Self-Dissolving Microneedle Arrays for Transdermal Absorption Enhancement of Human Parathyroid Hormone (1-34)” (Pharmaceutics, 2018).

Each structure is given as a SMILES string.

Data set [1] in a line: Storage stability of PTH in MNs fabricated from HA and in PBS solution. To be noted: PTH dissolved in PBS, PTH (1-34) ELISA, mean of three experiments. It is filed as physicochemical. How it is done: PTH-loaded MNs were packaged into an aluminum sachet purged with nitrogen and stored at −20 °C, 4 °C, or at room temperature (15–20 °C). PTH solution dissolved in PBS was kept at the same temperatures as the control. Following one month of storage, the needles were separated from the back layers of MNs and dissolved in PBS. The actual amounts of PTH present in the needle parts of the MNs were measured using the PTH (1-34) ELISA kit (PTH (1-34), Human, EIA Kit, High Sensitivity, Peninsula Laboratories International, Inc. San Carlos, CA, USA).
Background: In an ELISA, binding on a coated surface is turned into a signal by an enzyme label.

Data set [2] is described as follows: In vivo transdermal delivery of PTH: plasma pharmacokinetics. Set-up: species or system Wistar rats. Conditions: sc, 20 ug/animal, rat, subcutaneous injection of PTH solution, 20 µg/rat, ELISA, mean ± SD of three rats. The method, then: The abdominal skin of Wistar rats was shaved while the animals were placed under pentobarbital anesthesia (52 mg/kg as pentobarbital sodium salt). PTH-loaded MNs (20 µg/rat) were then applied to the abdominal skin of rats. The dosage of PTH in MNs was calculated based on the content of PTH in the needle part of MNs. Separately, PTH solution (20 µg/rat) was subcutaneously injected into the backs of rats. At pre-determined intervals, 0.3 mL of blood was withdrawn from the jugular veins while the animals were placed under pentobarbital anesthesia (52 mg/kg as pentobarbital sodium salt) and collected in tubes containing 0.3 mg of EDTA and 150 KIU of aprotinin. The collected blood was then centrifuged for 15 min at 4000 rpm to obtain plasma. […] The peak PTH plasma concentration (Cmax) and time to reach Cmax (Tmax) were determined directly from the plasma concentration–time profiles. Area under the plasma concentration-time curve (AUC) after transdermal administration or subcutaneous injection was calculated by the trapezoidal formula and extrapolation to infinite time based on monoexponential equation [26].
The PTH in the plasma sample was extracted and purified using SEP-columns. […] Concentrations of PTH were determined using the PTH (1-34) ELISA kit (PTH (1-34), Human, EIA Kit, High Sensitivity, Peninsula Laboratories International, Inc. San Carlos, CA, USA).

The subject of data set [3] is rats with ovariectomy (OVX)-induced osteoporosis. The experiment in a line: Therapeutic potential in post-menopausal rat model of osteoporosis (OVX). Conditions: subcutaneous injection of PTH 20 µg/rat, hematoxylin and eosin. It is filed as in vivo, female Sprague-Dawley rats. How it is done:
The post-menopausal rat model of osteoporosis was established by performing ovariectomies (OVX) of female Sprague-Dawley rats. Four weeks following OVX, PTH-loaded MNs (20 µg/rat) were applied to the rats twice a week, for a period of 4 weeks. Separately, PTH (20 µg/rat) was subcutaneously injected into the rats. Eight weeks after OVX, rats were euthanized, and the tibias were excised and fixed in 4% paraformaldehyde in PBS. The fixed tibias were then embedded in paraffin and sectioned by microtome. The sections of tibias were subsequently stained with hematoxylin and eosin and then used for histological analysis.

A word on the Cmax: it is the maximum level reached in the sampled fluid or tissue. By Tmax is commonly meant the time from dosing to the highest level. Turning to `CC[C@H](C)[C@H](NC(=O)[C@H](CCC(=O)O)NC(=O)[C@H](CO)NC(=O)[C@@H](NC(=O)[C@@H](N)CO)C(C)C)C(=O)N[C@@H](CCC(N)=O)C(=O)N[C@@H](CC(C)C)C(=O)N[C@@H](CCSC)C(=O)N[C@@H](Cc1c[nH]cn1)C(=O)N[C@@H](CC(N)=O)C(=O)N[C@@H](CC(C)C)C(=O)NCC(=O)N[C@@H](CCCCN)C(=O)N[C@@H](Cc1c[nH]cn1)C(=O)N[C@@H](CC(C)C)C(=O)N[C@@H](CC(N)=O)C(=O)N[C@@H](CO)C(=O)N[C@@H](CCSC)C(=O)N[C@@H](CCC(=O)O)C(=O)N[C@@H](CCCNC(=N)N)C(=O)N[C@H](C(=O)N[C@@H](CCC(=O)O)C(=O)N[C@@H](Cc1c[nH]c2ccccc12)C(=O)N[C@@H](CC(C)C)C(=O)N[C@@H](CCCNC(=N)N)C(=O)N[C@@H](CCCCN)C(=O)N[C@@H](CCCCN)C(=O)N[C@@H](CC(C)C)C(=O)N[C@@H](CCC(N)=O)C(=O)N[C@@H](CC(=O)O)C(=O)N[C@H](C(=O)N[C@@H](Cc1c[nH]cn1)C(=O)N[C@@H](CC(N)=O)C(=O)N[C@@H](Cc1ccccc1)C(=O)O)C(C)C)C(C)C` [PTH, Human parathyroid hormone (1-34)], the entries for the “initial PTH retained in the solution after storage” value in data set [1] (stored one month at 4 °C), in data set [1] (stored one month at room temperature (15–20 °C)) and in data set [1] (stored one month at −20 °C) were ~84%, ~13% and “approximately 98%”, respectively. Besides, the Cmax in data set [2] (Wistar) amounted to 15.1 ± 4.6 ng/mL. Moreover, in data set [2] (in vivo), the Tmax is 30 min. For the same molecule, the “effect on decrease in bone matrix density (tibia histology)” value in data set [3] is “effectively prevented”.
